According to paper PMC11202169, “A Novel Fluorescence-Based Microplate Assay for High-Throughput Screening of hSULT1As Inhibitors” (Biosensors, 2024):

How the values were obtained:
hSULT1A2 [1] = molecular target: T1, hSULT1A2 (Homo sapiens, UniProt P50226); test: hSULT1As reaction phenotyping assay (HPLC), hSULT1A2; format: biochemical; settings: fluorophore 10 μM, PAPS 200 μM, 1 h, 37 °C
T1 construct: 6-histidine tag (N); TEV site (N); made in house; host or cells: Escherichia coli BL21 (DE3), pET29a(+)
Experimental: (§1) The incubation system consisted of Tris-HCl buffer (pH 7.4, 50 mM), MgCl2 (5 mM), DTT (200 μM), recombinant hSULT1As (29 pmol), and each fluorophore or 4-HN derivative (10 μM). After pre-incubation at 37 °C for 3 min, the reaction was initiated by adding an excess of PAPS (200 μM). Following 1 h incubation, the reaction was terminated with the addition of an equal volume of ice-cold acetonitrile. After centrifugation at 20,000× g for 20 min at 4 °C, the supernatant was collected for HPLC analysis. The mobile phase consisted of 10 mM aqueous ammonium acetate (A) and acetonitrile (B) at a flow rate of 0.4 mL/min. Gradient elution was performed under the following conditions: 0–2.0 min, 5% B; 2.0–10.0 min, 5–95% B; 10.0−12.0 min, 95% B; 12.0–12.5 min, 95–5% B; and 12.5–15.0 min, 5% B.

hSULT1A1 [2] = molecular target: T2, hSULT1A1 (Homo sapiens, UniProt P50225); test: hSULT1As reaction phenotyping assay (HPLC), hSULT1A1; format: biochemical; settings: fluorophore 10 μM, PAPS 200 μM, 1 h, 37 °C
T2 construct: 6-histidine tag (N); TEV site (N); made in house; host or cells: Escherichia coli BL21 (DE3), pET29a(+)
Experimental: as §1

hSULT1A3 [3] = molecular target: T3, hSULT1A3 (Homo sapiens, UniProt P0DMM9); test: hSULT1As reaction phenotyping assay (HPLC), hSULT1A3; format: biochemical; settings: fluorophore 10 μM, PAPS 200 μM, 1 h, 37 °C
T3 construct: 6-histidine tag (N); TEV site (N); made in house; host or cells: Escherichia coli BL21 (DE3), pET29a(+)
Experimental: as §1

hSULT1As = test: O-sulfation and spectroscopic changes with hSULT1As (statements for all isoforms together); format: biochemical, human; settings: substrate 10 μM, all tested hSULT1A isozymes
Experimental: as §1
The spectroscopic changes in these fluorophores following O-sulfation were investigated. The incubation system was the same as that used in Section 2.3. The emission spectra of eight fluorophores in the presence and absence of three hSULT1A isoforms were determined using BioTek Synergy H1.

hSULT1A2 [4] = molecular target: T1, hSULT1A2; test: Fluorescence-based microplate inhibition assay, hSULT1A2-catalyzed HN-241 4-O-sulfation; format: biochemical; settings: test compound 10 μM, HN-241 5 μM, 15 min
hSULT1A1 [5] = molecular target: T2, hSULT1A1; test: Fluorescence-based microplate inhibition assay, hSULT1A1-catalyzed HN-241 4-O-sulfation; format: biochemical; settings: test compound 1 μM, HN-241 1 μM, 15 min;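 also: reaction started with 200 µM PAPS at 37 °C, fluorescence read continuously (Ex 350 nm, Em 450 nm), activity expressed relative to DMSO-only control without inhibitor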
hSULT1A3 [6] = molecular target: T3, hSULT1A3; test: Fluorescence-based microplate inhibition assay, hSULT1A3-catalyzed HN-241 4-O-sulfation; format: biochemical; settings: test compound 10 μM, HN-241 10 μM, 15 min

T2 sequence (P50225 whole entry): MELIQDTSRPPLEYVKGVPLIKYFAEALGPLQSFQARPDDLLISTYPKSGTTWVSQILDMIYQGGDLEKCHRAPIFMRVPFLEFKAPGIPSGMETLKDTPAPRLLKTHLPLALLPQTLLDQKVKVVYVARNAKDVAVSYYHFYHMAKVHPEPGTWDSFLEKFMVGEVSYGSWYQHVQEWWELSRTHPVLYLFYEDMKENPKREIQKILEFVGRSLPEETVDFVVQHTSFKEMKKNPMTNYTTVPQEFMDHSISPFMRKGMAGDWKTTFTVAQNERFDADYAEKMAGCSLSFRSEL
T3 sequence (P0DMM9 whole entry): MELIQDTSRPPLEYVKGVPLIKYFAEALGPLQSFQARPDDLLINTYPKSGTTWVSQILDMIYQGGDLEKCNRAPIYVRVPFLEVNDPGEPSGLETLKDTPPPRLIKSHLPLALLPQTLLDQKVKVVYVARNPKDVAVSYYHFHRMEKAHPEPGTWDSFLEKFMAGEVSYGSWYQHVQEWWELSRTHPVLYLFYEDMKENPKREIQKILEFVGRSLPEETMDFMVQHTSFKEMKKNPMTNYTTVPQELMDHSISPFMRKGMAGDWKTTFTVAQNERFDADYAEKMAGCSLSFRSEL
T1 sequence (P50226 whole entry): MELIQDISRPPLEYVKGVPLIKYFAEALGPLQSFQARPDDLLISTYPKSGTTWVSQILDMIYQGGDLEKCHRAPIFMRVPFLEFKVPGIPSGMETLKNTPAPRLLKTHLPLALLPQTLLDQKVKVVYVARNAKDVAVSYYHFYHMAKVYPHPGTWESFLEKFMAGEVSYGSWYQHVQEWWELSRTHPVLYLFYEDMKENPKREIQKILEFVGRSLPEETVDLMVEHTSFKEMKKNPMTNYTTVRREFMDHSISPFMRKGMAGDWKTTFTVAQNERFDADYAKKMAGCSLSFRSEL

Row | Compound | Sulfation rate: peak area of the sulfated metabolite detected by HPLC, hSULT1A2 (hSULT1A2 [1]) | Sulfation rate: peak area of the sulfated metabolite detected by HPLC, hSULT1A1 (hSULT1A1 [2]) | Residue activity (%) hSULT1A2 (hSULT1A2 [4]) [%] | Residue activity (%) hSULT1A1 (hSULT1A1 [5]) [%] | Residue activity (%) hSULT1A3 (hSULT1A3 [6]) [%] | other results
1 | N#CC(C#N)=C1C=C(/C=C/c2ccc(O)cc2)Oc2ccccc21 [fluorophore D] | ++ (“++” and “+++” denote ranges from 10,000 to 50,000, and greater than 50,000, respectively) | +++ (“++” and “+++” denote ranges from 10,000 to 50,000, and greater than 50,000, respectively) |  |  |  | 
2 | CC1(C)OC(=C(C#N)C#N)C(C#N)=C1/C=C/c1cc2ccc(O)cc2oc1=O [fluorophore E] | +++ (“++” and “+++” denote ranges from 10,000 to 50,000, and greater than 50,000, respectively) | + (“+” shows the peak area of the sulfated metabolites of each fluorophore detected by HPLC, ranging from 0 to 10,000) |  |  |  | Sulfation rate: peak area of the sulfated metabolite detected by HPLC, hSULT1A3 (hSULT1A3 [3]): +++ (“++” and “+++” denote ranges from 10,000 to 50,000, and greater than 50,000, respectively)
3 | CC1(C)OC(=C(C#N)C#N)C(C#N)=C1/C=C/c1ccc2cc(O)ccc2c1 [fluorophore F] | + (“+” shows the peak area of the sulfated metabolites of each fluorophore detected by HPLC, ranging from 0 to 10,000) | +++ (“++” and “+++” denote ranges from 10,000 to 50,000, and greater than 50,000, respectively) |  |  |  | 
4 | CCCCN1C(=O)c2cccc3c4c(cc(c23)C1=O)C(C)(C)C(/C=C/c1ccc(O)cc1)=N4 [fluorophore G] |  |  |  |  |  | O-sulfation by hSULT1As (in words) (hSULT1As): could not be sulfated
5 | CC[n+]1ccc(/C=C/c2ccc(-c3ccc(O)cc3)s2)c2ccccc21 [fluorophore H] | ++ (“++” and “+++” denote ranges from 10,000 to 50,000, and greater than 50,000, respectively) | +++ (“++” and “+++” denote ranges from 10,000 to 50,000, and greater than 50,000, respectively) |  |  |  | Sulfation rate: peak area of the sulfated metabolite detected by HPLC, hSULT1A3 (hSULT1A3 [3]): +++ (“++” and “+++” denote ranges from 10,000 to 50,000, and greater than 50,000, respectively); O-sulfation by hSULT1As (in words) (hSULT1As): highest O-sulfation rate
6 | CC(C)=CCc1cc(-c2oc3cc(O)cc(O)c3c(=O)c2O)ccc1O [iso-Licoflavonol] |  |  |  |  |  | remaining activity at 10 µM (hSULT1A2 [4]; 0.25 h, read-out: Residue activity (%) hSULT1A2): 0.03%; activity at 1 µM (hSULT1A1 [5]; read-out: Residue activity (%) hSULT1A1): 3.31%; activity at 10 µM (hSULT1A3 [6]; read-out: Residue activity (%) hSULT1A3): 62.1%
7 | O=C(/C=C/c1ccccc1)c1ccccc1 [trans-Chalcone] |  |  | 91.40 | 71.86 | 116.88 | 
8 | Ginkgolic acid |  |  | 13.44 | 12.05 | 66.66 | 
9 | Gomisin A |  |  | 97.44 | 129.03 | 122.78 | 
10 | Hydroxysafflor yellow A |  |  | 100.46 | 97.09 | 99.76 | 
11 | Myricitrin |  |  | 84.45 | 96.68 | 110.49 | 
12 | Sennosides |  |  | 3.06 | 26.92 | 19.21 | 
